From patent US7425572B2, “Use of dioxindoindazoles and dioxoloindazoles for treating glaucoma” (Alcon, Inc., priority 2004, dated 2008) come the findings set out here.

For series [1], the target named is T1, 5-HT2 receptor (A7r5 rat vascular smooth muscle cells) (Rattus norvegicus, UniProt P14842).
T1 construct: endogenous in cells; host or cells: A7r5 rat vascular smooth muscle cells
As to the kind of experiment: 5-HT2 functional assay: [Ca2+]i mobilization (FLIPR). The series is classed as cell-based. As to conditions: for EC50: [Ca2+]i mobilization; for Emax: percentage of maximum 5-HT-induced response, read-out: Efficacy (Emax, %). Here is the method:
Method 2: 5-HT2 Functional Assay: [Ca^2+]i Mobilization
The receptor-mediated mobilization on intracellular calcium ([Ca^2+]i) was studied using the Fluorescence Imaging Plate Reader (FLIPR) instrument. Rat vascular smooth muscle cells, A7r5, were grown in a normal media of DMEM/10% FBS and 10 μg/mL gentamycin. Confluent cell monolayers were trypsinized, pelleted, and re-suspended in normal media. Cells were seeded in a […] volume at a density of 20,000 cells/well in a black wall, 96-well tissue culture plate and grown for 2 days.
On the day of the experiment, one vial of FLIPR Calcium Assay Kit dye was re-suspended in 50 mL of a FLIPR buffer consisting of Hank's Balanced Salt Solution (HBSS), 20 mM HEPES, and 2.5 mM probenecid, pH 7.4. Cells were loaded with the calcium-sensitive dye by addition of an equal volume (50 μL) to each well of the 96-well plate and incubated with dye for 1 h at 23° C.
Typically, test compounds were stored at 25 μM in 50% DMSO/50% Ethanol solvent. Compounds were diluted 1:50 in 20% DMSO/20% Ethanol. For “hit” screening, compounds were further diluted 1:10 in FLIPR buffer and tested at a final concentration of 10 μM. For dose-response experiments, compounds were diluted 1:50 in FLIPR buffer and serially diluted 1:10 to give a 5- or 8-point dose-response curve.
The compound plate and cell plate were placed in the FLIPR instrument. At the beginning of an experimental run, a signal test was performed to check the basal fluorescence signal from the dye-loaded cells and the uniformity of the signal across the plate. The basal fluorescence was adjusted between 8000-12000 counts by modifying the exposure time, the camera F-stop, or the laser power. Instrument settings for a typical assay were the following: laser power 0.3-0.6 W, camera F-stop F/2, and exposure time 0.4 sec. An aliquot (25 μL) of the test compound was added to the existing 100 μL dye-loaded cells at a dispensing speed of 50 μL/sec. Fluorescence data were collected in real-time at 1.0 sec intervals for the first 60 secs and at 6.0 sec intervals for an additional 120 secs. Responses were measured as peak fluorescence intensity minus basal and where appropriate were expressed as a percentage of a maximum 5-HT-induced response. When the compounds were tested as antagonists against 10 μM 5-HT, they were incubated with the cells for 15 minutes prior to the addition of 5-HT.

Series [2] deals with lasered (hypertensive) eyes of conscious cynomolgus monkeys. In words: Acute IOP response in lasered (hypertensive) eyes of conscious cynomolgus monkeys. In kind it is in vivo. As to conditions: lasered monkey eye. Here is the method: Method 3: Acute IOP Response in Lasered (Hypertensive) Eyes of Conscious Cynomolgus Monkeys
Intraocular pressure (IOP) can be determined with an Alcon Pneumatonometer after light corneal anesthesia with 0.1% proparacaine. Eyes are washed with saline after each measurement. After a baseline IOP measurement, test compound is instilled in one 30 μL aliquot to the right eyes only of nine cynomolgus monkeys. Vehicle is instilled in the right eyes of six additional animals. Subsequent IOP measurements are taken at 1, 3, and 6 hours.
The above method was used to determine the IOP lowering efficacy of the compound of Example 1 (dosed at a concentration of 300 μg).

Setting [3] is: 1 hr after topical dose of 300 μg.
The mark [4] stands for this setting: 3 hrs after topical dose of 300 μg.
[5] abbreviates: 6 hrs after topical dose of 300 μg.

Structures are written as SMILES. Counter-ions that a name gives are not always drawn.

T1 sequence (P14842 whole entry): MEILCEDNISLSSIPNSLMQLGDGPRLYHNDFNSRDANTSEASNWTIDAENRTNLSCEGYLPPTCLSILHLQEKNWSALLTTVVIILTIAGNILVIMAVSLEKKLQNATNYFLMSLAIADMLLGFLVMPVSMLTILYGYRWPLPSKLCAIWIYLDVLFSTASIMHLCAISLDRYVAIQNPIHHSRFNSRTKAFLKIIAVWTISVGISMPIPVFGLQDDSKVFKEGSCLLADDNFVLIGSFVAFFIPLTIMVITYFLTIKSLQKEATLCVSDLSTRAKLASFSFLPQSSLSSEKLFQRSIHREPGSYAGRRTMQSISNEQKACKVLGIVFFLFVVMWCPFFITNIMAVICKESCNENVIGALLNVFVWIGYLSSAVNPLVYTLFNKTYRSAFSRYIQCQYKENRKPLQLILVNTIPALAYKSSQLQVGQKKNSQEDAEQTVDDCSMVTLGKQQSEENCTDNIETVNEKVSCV

The term melting point denotes the temperature of the solid-liquid transition. With `C[C@H](N)Cn1ncc2ccc3c(c21)O[C@@H](CO)CO3` (as salt: hydrochloride) [Example 1, [(S)-1-((S)-2-Amino-propyl)-7,8-dihydro-1H-[1,4]dioxino[2,3-g]indazol-8-yl]-methanol hydrochloride], the melting point lay in the range of 202 to 203 °C.

By EC50 is commonly meant the concentration at which the effect is half-maximal. Broadly, the Emax is the size of the effect at its maximum, as opposed to the concentration needed. Take `C[C@H](N)Cn1ncc2ccc3c(c21)O[C@@H](CO)CO3` [Example 1, [(S)-1-((S)-2-Amino-propyl)-7,8-dihydro-1H-[1,4]dioxino[2,3-g]indazol-8-yl]-methanol hydrochloride]: a half-maximal response in series [1] (EC50) required 31 nM. In addition, in series [1], the Emax worked out at 39%. The IOP % change in series [2] (setting [3]) is reported as −4.3%; in series [2] (setting [4]), −15.8%; in series [2] (setting [5]) it was −23.6%. In addition, the “IOP Change mmHg” value was −2.2 mmHg in series [2] (setting [3]), −6.8 mmHg in series [2] (setting [4]) and −9.6 mmHg in series [2] (setting [5]).

`C[C@H](N)Cn1ncc2ccc3c(c21)O[C@H](CO)CO3.Cl` [Example 2, [(R)-1-((S)-2-Aminopropyl)-7,8-dihydro-1H-[1,4]dioxino[2,3-g]indazol-8-yl]-methanol hydrochloride]: the melting point lay within 112 to 116 °C. Also, in series [1], the EC50 is 53 nM and the Emax stood at 77%.

Consider `C[C@H](N)Cn1ncc2ccc3c(c21)OCCO3` [Example 3, (S)-2-(7,8-Dihydro-[1,4]dioxino[2,3-g]indazol-1-yl)-1-methyl-ethylamine hydrochloride], for which, in series [1], it took 27 nM to reach a half-maximal effect (EC50) and the Emax came out at 92%.

Turning to `C[C@H](N)Cn1ncc2ccc3c(c21)O[C@@H](CNS(C)(=O)=O)CO3.Cl` [Example 4, N-[(S)-1-((S)-2-Amino-propyl)-7,8-dihydro-1H-[1,4]dioxino[2,3-g]indazol-8-ylmethyl]-methanesulfonamide hydrochloride], the melting point fell in the range of 235 to 236 °C. In series [1], the EC50 worked out at 78 nM and the Emax came to 81%.

As to `CCS(=O)(=O)NC[C@H]1COc2ccc3cnn(C[C@H](C)N)c3c2O1.Cl` [Example 5, Ethanesulfonic acid [(S)-1-((S)-2-amino-propyl)-7,8-dihydro-1H-[1,4]dioxino[2,3-g]indazol-8-ylmethyl]-amide hydrochloride], the melting point is 243 to 244 °C. Moreover, in series [1], it took 67 nM to reach a half-maximal effect (EC50) and the Emax is 82%.

On to `CC(C)C(=O)NC[C@H]1COc2ccc3cnn(C[C@H](C)N)c3c2O1` [Example 6, N-[(S)-1-((S)-2-Amino-propyl)-7,8-dihydro-1H-[1,4]dioxino[2,3-g]indazol-8-ylmethyl]-isobutyramide hydrochloride], for which, in series [1], the EC50 came out at 125 nM and the Emax turned out to be 59%.

In turn, `COC(=O)NC[C@H]1COc2ccc3cnn(C[C@H](C)N)c3c2O1.Cl` [Example 7, [(S)-1-((S)-2-Amino-propyl)-7,8-dihydro-1H-[1,4]dioxino[2,3-g]indazol-8-ylmethyl]-carbamic acid methyl ester hydrochloride] gave a melting point of 265 to 266 °C. Besides, in series [1], the midpoint of the response, the EC50, lay at 92 nM and the Emax amounted to 66%.

For `C[C@H](N)Cn1ncc2ccc3c(c21)O[C@@H](CN)CO3` [Example 8, (S)-2-((S)-8-Aminomethyl-7,8-dihydro-[1,4]dioxino[2,3-g]indazol-1-yl)-1-methyl-ethylamine hydrochloride], in series [1], the midpoint of the response, the EC50, lay at 232 nM and the maximum response (Emax) turned out to be 54%.

On to `COC(=O)NC[C@@H]1COc2ccc3cnn(C[C@H](C)N)c3c2O1` [Example 9, [(R)-1-((S)-2-Amino-propyl)-7,8-dihydro-1H-[1,4]dioxino[2,3-g]indazol-8-ylmethyl]-carbamic acid methyl ester hydrochloride], for which, in series [1], the EC50 was found to be 106 nM and the Emax amounted to 44%.
